Patent publication US11629141B2, “Proteasome inhibitors and uses thereof” (CORNELL UNIVERSITY, priority 2015, dated 2023)
“Also recorded” adds a separate entry of the source. Read-outs that look alike come from different tables or passages of the source. Blank lines part the entries; values can stand above or below the molecule they belong to.

Tests used:
[1] = biological target: T1, human immunoproteasome β5i (Homo sapiens, UniProt P28062); experiment: IC50 against chymotryptic β5i activity of human immunoproteasome (96-well plate, Ac-ANW-AMC); format: biochemical
T1 construct: purchased Boston Biochem Inc
Description: A 96-well-plate assays were used to determine the IC50s against the chymotryptic β5 activities of the proteasomes. Both human constitutive proteasome and immunoproteasome were purchased from Boston Biochem Inc. 1 μL of 100× compound in DMSO at designated concentrations were spotted at the bottom of the wells. DMSO was used as a control. […] The hydrolysis of the substrate over time in each well was monitored at excitation 360 nm, emission 460 nm for 90 minutes. IC50s were estimated by fitting the velocities of hydrolysis against compound concentrations using PRISM. […] SDS (0.02%) was used as activator, and 0.01% BSA was used in the reaction buffer.

Pf20S β5 = experiment: Labeling of Pf20S active subunits by activity probe MV151 in Pf lysates; format: biochemical, P. falciparum; conditions: 1 hour with inhibitor, then MV151 (2 μM) 1 hour
Description: Pf lysates were incubated with inhibitors at indicated concentrations for 1 hour prior to incubation with MV151 (2 μM) for an additional hour. SDS pages were scanned on a Typhoon fluorescent scanner. […] BTZ was used as a positive control.

Plasmodium falciparum = experiment: Growth of Plasmodium falciparum in red blood cells (SYBR Green, 72 hours); format: cell-based
Description: Continuous in vitro cultures of Plasmodium falciparum: were maintained in human red blood cells (RBC) diluted to a hematocrit of 5% in RPMI 1640 medium with HEPES and Hypoxanthine and completed with 0.5% Albumax II (Invitrogen), 0.25% sodium bicarbonate, and 0.1 mg/ml gentamicin. Parasites were incubated at 37° C. in a gas mixture of 5% oxygen, 5% carbon dioxide, and 90% nitrogen.
Parasite sensitivity to novel compounds were determined using a SYBR Green (Invitrogen S1046) drug assay protocol. P. falciparum of various clinic stains were cultured with compounds at concentrations in a series of dilution in a clear, sterile 96-well plate for 72 hours. Subsequently, 150 μl of the cultures were transferred to a black 96-well plate and placed in the freezer for red blood cell lysis. The plates were thawed and suspended in a Sybr Green Lysis buffer. GraphPad Prism was used to analyze the raw data collected […]. Drug concentrations were converted to logarithms, normalized, and then curve fitted by non-linear regression to obtain EC50 values.
Plasmodium falciparum: parasites were cultured in human red cells. Drug assays were run in 96 well plates at a total volume of 200 μl. Assays were set up at a starting parasitemia (percent of infected red cells) of 0.5%. Test compounds were plated at concentrations of 2778 nM to 0.4 nM. The test plates were grown under standard low oxygen conditions at 37° C. for 72 hours. At that time the plates were prepared for growth determination, first the plates were frozen and thawed to lyse the red blood cells, 150 μl of the lysed thawed culture was transferred to a black 96 well plate, and mixed in a lysis buffer with SYBR green DNA dye. The fluorescence of each well was recorded in a plate reader with excitation wavelength 490 nm and emission wavelength 530 nm and normalized relative to DMSO control. The EC50s were determined using Prism software.

[2] = biological target: T2, human constitutive proteasome β5c (Homo sapiens, UniProt P28074); experiment: IC50 against chymotryptic β5c activity of human constitutive proteasome (96-well plate, Suc-LLVY-AMC); format: biochemical
T2 construct: purchased Boston Biochem Inc
Description: A 96-well-plate assays were used to determine the IC50s against the chymotryptic β5 activities of the proteasomes. Both human constitutive proteasome and immunoproteasome were purchased from Boston Biochem Inc. 1 μL of 100× compound in DMSO at designated concentrations were spotted at the bottom of the wells. DMSO was used as a control. Final concentrations of the inhibitors were from 100 μM to 0.098 μM. The hydrolysis of the substrate over time in each well was monitored at excitation 360 nm, emission 460 nm for 90 minutes. IC50s were estimated by fitting the velocities of hydrolysis against compound concentrations using PRISM. […] Suc-LLVY-AMC was used for βc at final concentration of 25 μM, and Ac-ANW-AMC for b5i at final concentration of 15 μM. SDS (0.02%) was used as activator, and 0.01% BSA was used in the reaction buffer.
The foregoing features of these AsnEDA encouraged a further round of SAR studies (Table 5) based on varying the carboxylic acid at the ethylenediamine, the N-cap at the Asn, and the side chain of the Asn, based on PKS21004. All compounds listed in the Table 5 were synthesized as described in Examples 6-77. All final compounds were confirmed by NMR and HRMS. IC50s of all compounds against β5i and β5c (Table 5), β1i, β2i, β1c and β2c were determined following a reported method (Lin et al., “N,C-Capped Dipeptides With Selectivity for Mycobacterial Proteasome Over Human Proteasomes: Role of S3 and S1Binding Pockets,” J Am Chem Soc. 135:9968-9971 (2013), which is hereby incorporated by reference in its entirety). […] The [1,1′-biphenyl]-3-carboxamide of PKS21004 was then modified with the following substituents: 4′-fluoro (PKS21026), 4′-cyano (PKS21028), 4-fluoro (PKS21196), 4,3′-difluoro (PKS21195) and 4,2′-difluoro (PKS21187).

Pf Gametocytes = experiment: Gametocyte killing assay (DilC1(5), flow cytometry); format: cell-based; conditions: Plasmodium falciparum; NF54 peg4-tdTomato, 72 hour incubation; read-out: EC50 against Pf Gametocytes
Description: Asexual replication of NF54 peg4-tdTomato parasites was eliminated by treating with 50 mM GlcNAc and 20 U/mL Heparin for 3 days. NF54 peg4-tdTomato parasites then were maintained using standard culture techniques. Gametocytes were induced synchronously according to Fivelman et al., “Improved Synchronous Production of Plasmodium Falciparum Gametocytes in Vitro,” Mol Biochemo Parasitol. 154(1):119-123 (2007), which is hereby incorporated by reference in its entirety. Asexual replication was eliminated by treating with 50 mM GlcNAc for 3 days. Gametocyte killing assays were setup on days 5 and 10 in triplicate 96-well format at 1% hematocrit and 2% gametocytemia. Compounds were setup in triplicate and serially diluted 3-fold. In addition, 6 solvent controls (DMSO) were distributed evenly across the plate. Following a 72 hour incubation, Stage III-IV (Day 5-7) and Stage IV-V (Day 10-12), (start the incubation in the afternoon on Day 5 and Day 10, take out plate for assay on Day8 and Day13 afternoon) cultures were stained with 16 nM Hoechst 33342 and 50 nM DilC1(5) for 30 min at 37 C. Using a Cytek DxP12 flow cytometer, gametocytemia was determined by gating for DNA+, hemozoin-high cells and gametocyte viability was inferred based on mitochondrial membrane potential-dependent accumulation of DilC1(5) for 2000-3000 gametocytes (Tanaka et al., “Potent Plasmodium Falciparum Gametocytocidal Activity of Diaminonaphthoquinones, Lead Antimalarial Chemotypes Identified in an Antimalarial Compound Screen,” Antimicrob. Agents Chemother. 2015, 59:1389 (2015), which is hereby incorporated by reference in its entirety). Mean DilC1(5) signal was normalized to solvent control and the overall minimum and used to calculate the EC50 (FIG. 3 and Table 4).

[3] = tested on: Karpas1106P B lymphoma cells; experiment: Cell viability assay, Karpas1106P; format: cell-based; conditions: Homo sapiens, Karpas-1106P; cytotoxicity, 72 hours
Description: (§1) Multiple myeloma cell lines MM.1 S (200,000 cells/mL) and RPMI 8226 (200,000 cells/mL), B lymphoma cell line Karpas1106P (800,000 cells/mL), and liver cancer cell line HepG2 (12,000 cells/mL) were used to determine the cytotoxicity of compounds. Cells were cultured at 37° C. in a humidified air/5% CO2 atmosphere in medium supplemented with 10% fetal bovine serum, except for the medium for Karpas-1106P cells which contained 20% fetal bovine serum, and 100 units/ml penicillin/100 […] streptomycin in RPMI 1640 medium. 12,000 cells/well. Cells plated in a 96-well plate were treated with compounds at the indicated concentrations for 72 hours at 37° C. in a tissue culture incubator with 5% CO2. Viable cells were counted using Cell-titer/glom assay kit. EC50s were calculated using PRISM (Graphpad).

[4] = tested on: RPMI 8226 multiple myeloma cells; experiment: Cell viability assay, RPMI 8226; format: cell-based; conditions: Homo sapiens, cytotoxicity, 72 hours
Description: as §1

[5] = biological target: T3, β5i in Karpas 1106P cells (Homo sapiens, UniProt P28062); experiment: Intracellular β5i inhibition in Karpas 1106P cells ((Ac-ANW)2-R110); format: cell-based; conditions: 2 hours treatment
T3 construct: endogenous in cells; host or cells: Karpas 1106P
Excerpt: (§2) Data were average of three independent experiments.
(§3) IC50 values with both substrates were identical and indicated cell-penetrating ability. […] No β5i activity was detected in HepG2 cells using (Ac-ANW)2—R110 as substrate (FIG. 2A).

[6] = tested on: MM1.S multiple myeloma cells; experiment: Cell viability assay, MM.1S; format: cell-based; conditions: Homo sapiens, cytotoxicity, 72 hours
Description: as §1

β5c in HepG2 cells = biological target: T4, β5c in HepG2 cells (Homo sapiens, UniProt P28074); experiment: Intracellular β5c inhibition in HepG2 cells (suc-LLVY-luciferin); format: cell-based; conditions: 2 hours treatment, read-out: IC50 HepG β5c
T4 construct: endogenous in cells; host or cells: HepG2
Excerpt: as §2, §3

hu i-20S β5i = biological target: T5, hu i-20S β5i (Homo sapiens, UniProt P28062); experiment: Kinetic analysis, substrate titration of hu i-20S steady state velocities; format: biochemical
T5 construct: purchased Boston Biochem Inc
Description: FIGS. 1A-1E are graphs showing inhibition modality of PKS21004 against human proteasomes. Washout of c-20S from the preincubated c-20S and […] to recover the β5c activity (FIG. 1A). Substrate titration of hu i-20S (FIG. 1B) and c-20S (FIG. 1D) steady state velocities in the presence of PKS21004 at the concentrations indicated next to each curve. Data as in (FIG. 1B) were plotted double reciprocal in (FIG. 1C), and (FIG. 1D) in (FIG. 1E).
A washout experiment was used to confirm the reversibility of this class of proteasome inhibitors, as expected from their non-covalent chemistry.

HepG2 liver cancer cells = experiment: Cell viability assay, HepG2; format: cell-based; conditions: Homo sapiens, cytotoxicity, 72 hours
Description: as §1

β5 in Karpas 1106P cells = experiment: Intracellular β5 inhibition in Karpas 1106P cells (suc-LLVY-luciferin); format: cell-based; conditions: 2 hours treatment
Excerpt: as §2, §3

[7] = β5i, substrate Ac-ANW-AMC, read-out: IC50 Hu i-20S (Ac-ANW-AMC)
[8] = Erythrocyte, P.f. 3D7, growth in red blood cells, read-out: EC50 (nM) (P.f.)
[9] = β5c, substrate Suc-LLVY-AMC, read-out: IC50 Hu c-20S (Suc-LLVY-AMC)

SMILES: CC(C)(C)NC(=O)C[C@H](NC(=O)CCc1ccccc1)C(=O)NCCNC(=O)c1ccc(-c2ccccc2)cc1 [PKS21003]
IC50 [1, 7]: > 100000 nM | labeling of Pf20S β5 by MV151 (Pf20S β5): did not | EC50 (Plasmodium falciparum; D6, Erythrocyte, read-out: EC50s against P. falciparum strain D6): > 2770 nM | EC50 (Plasmodium falciparum; DD2, Erythrocyte, read-out: EC50s against P. falciparum strain Dd2): > 2770 nM | EC50 (Plasmodium falciparum; [8]): > 2770 nM | EC50 (Plasmodium falciparum; Erythrocyte, read-out: EC50s against P. falciparum strain IPC 3663): > 2770 nM | EC50 (Plasmodium falciparum; Erythrocyte, read-out: EC50s against P. falciparum strain IPC 4884): > 2770 nM | EC50 (Plasmodium falciparum; Erythrocyte, read-out: EC50s against P. falciparum strain IPC 5188): > 2770 nM | EC50 (Plasmodium falciparum; Erythrocyte, read-out: EC50s against P. falciparum strain Sb1-a6): > 2770 nM | EC50 (Plasmodium falciparum; Erythrocyte, read-out: EC50s against P. falciparum strain V1S): > 2770 nM | EC50 (Plasmodium falciparum; HB3, Erythrocyte, read-out: EC50s against P. falciparum strain HB3): > 2770 nM | IC50 [2, 9]: > 100 µM

SMILES: Cc1cc(C(=O)N[C@@H](CC(=O)NC(C)(C)C)C(=O)NCCNC(=O)c2cccc(-c3cc[nH]n3)c2)no1 [PKS21287]
IC50 [1, 7]: 1150 nM | EC50 (Pf Gametocytes): 206 nM | labeling of Pf20S β5 by MV151 (Pf20S β5): block labeling; also recorded: dose-dependently inhibited the labeling | EC50 (Plasmodium falciparum; [8]): 34 nM | IC50 [2, 9]: 21.1 µM

improved potency against β5i ([1]; relative to PKS3080): 3 fold | selectivity for β5i over β5c ([1]; β5i over β5c): 26 fold | IC50 [1, 7]: 284 nM | EC50 (Plasmodium falciparum; [8]): 320 nM | IC50 [2, 9]: 3.6 µM
SMILES: CC(C)(C)NC(=O)C[C@H](NC(=O)CCc1ccccc1)C(=O)NCCNC(=O)c1ccc2ccccc2c1 [PKS21025]

SMILES: Cc1ccc(S(=O)(=O)N[C@@H](CC(=O)NC(C)(C)C)C(=O)NCCNC(=O)c2cc(-c3ccccc3F)ccc2F)cc1 [PKS21221]
IC50 ([1]; IC50 Hu i-20S (Ac-ANW-AMC), β5i, substrate Ac-ANW-AMC): 4.1 nM | IC50 ([1]; b406, read-out: IC50 against β5i): 2.4 nM | EC50 [3]: 840 nM | EC50 [4]: 75 nM | IC50 [5]: 172 nM | EC50 (Plasmodium falciparum; [8]): 0.55 nM | EC50 [6]: 95 nM | IC50 [2]: 0.106 µM | IC50 ([2]; b406, read-out: IC50 against β5c): 0.07 µM | IC50 (β5c in HepG2 cells): 2000 nM | α for i-20S (β5i) (hu i-20S β5i; fit to equation for noncompetitive inhibitors): 0.26 | modality of inhibition of β5i (hu i-20S β5i; with respect to substrate): noncompetitively inhibits; also recorded: noncompetitive | EC50 (HepG2 liver cancer cells): 3000 nM | IC50 (β5 in Karpas 1106P cells): 118 nM
